Results taken from patent US6399356B1, “Process and agent for sanitation of contaminations caused by viruses” (priority 1998, dated 2002).

Columns and labels:
reo-3-virus = test: Sanitization of a DEAE-Sephadex chromatography column contaminated with virus
Method: 1 g of DEAE-Sephadex A-50 (pre-swollen) was added as a slurry in 20 ml of PBS (pH 7.2) to 500 ml of a reo-3-virus-containing aqueous solution (cell culture supernatant with 5% FCS) having a virus titer (CCID50) of 5.5 log10. After stirring for 30 min at approximately 20° C., all the material was transferred to a chromatography column and, after sedimentation of the resin, the column was emptied. The resin was then washed with 150 ml of wash buffer (0.2 M NaCl, pH 6.0 by means of KH2PO4/NaOH) and finally eluted with elution buffer (2.0 M NaCl, pH 8.0 by means of KH2PO4/NaOH). For sanitization, the column was washed (in countercurrent) with 3 column volumes of a wash buffer containing carvacrol solution (1:2000) and allowed to stand overnight at approximately 20° C. under this carvacrol solution. The column was then regenerated with wash buffer.

[1] = system: non-cytopathogenic pestivirus strain in MDBK cell culture; test: Sanitization of a cell culture: titration of cytopathogenic BVDV strain on treated MDBK indicator cells; assay type: cell-based
Method: The infection of the cell culture can be followed, inter alia, by the (fetal) calf serum necessary for cell culture.
An MDBK cell culture which is infected with a non-cytopathogenic pestivirus strain is passaged as is customary (splitting rate 1:5; Eagles Minimal Essential Medium containing 5% FCS) and two cell culture flasks are prepared. One cell culture flask remains untreated, the second cell culture flask is treated with thymol (1:50,000). Both cell culture flasks are passaged weekly, the treatment of the cell culture being carried out for 3 passages. After one passage without treatment, cells from the respective cell culture flasks are inoculated into microtiter plates and a titration (end point dilution method) of a cytopathogenic BVDV strain (Denmark) is carried out on the respective indicator cells. The cytopathogenic effect is evaluated as an indication of virus replication and the virus titer is calculated (Spaerman-Kärber method; Table 2).

[2] = carvacrol solution (1:2000) after about 16 hours' incubation at approximately 20° C. (12 ml)
[3] = wash buffer after sanitation with carvacrol, 2nd column volume (12 ml)

SMILES: Cc1ccc(C(C)C)cc1O [Carvacrol solution, carvacrol]
- Virus load (Titer × volume) (reo-3-virus; [2]): ≦2.6 [log10]
- Virus titer (reo-3-virus; [2]): ≦1.5 CCID50/ml[log10]
- Virus titer (reo-3-virus; carvacrol solution (1:2000) in wash buffer, 1st column volume (12 ml), titer determined immediately after obtaining the sample, starting material 5.5): 4.2 CCID50/ml[log10]
- Virus load (Titer × volume) (reo-3-virus; carvacrol solution (1:2000), 1st column volume (12 ml), determined immediately after obtaining the sample, starting material 8.2): 5.3 [log10]
- Inactivation of reo-3-virus on the column (reo-3-virus; sanitization of DEAE-Sephadex column with carvacrol solution (1:2000) overnight): complete inactivation of reo-3-virus below the detection limit
- Virus load (Titer × volume) (reo-3-virus; [3]): ≦2.6 [log10]
- Virus titer (reo-3-virus; [3]): ≦1.5 CCID50/ml[log10]

SMILES: Cc1ccc(C(C)C)c(O)c1 [thymol]
- Virus titer of cytopathogenic BVDV strain (Denmark) on the indicator cells ([1]; MDBK cells infected with non-cytopathogenic pestivirus, 3 passages treated with thymol (1:50,000), then one passage without treatment, untreated 3.9, starting culture 4.3): 7.6 (CCID50ml) [log10]
- Inactivation of non-cytopathogenic pestivirus in MDBK cells ([1]; thymol (1:50,000), 3 passages): the non-cytopathogenic pestivirus is inactivated
